Laboratory results reported in the supplement of paper PMC11061612.

Key:
SG3199 = compound: CC1=CN2[C@@H](C1)C=NC3=CC(=C(C=C3C2=O)OC)OCCCCCOC4=C(C=C5C(=C4)N=C[C@@H]6CC(=CN6C5=O)C)OC [SG3199]; conditions: max 0.001 µM
How it was run: (§1)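 In 1536-well plates, cancer cell lines in 7.5 μl DMEM/F12 or RPMI with 10% FBS spent 24 hours at 37°C and 5% CO2 and were then dosed for 72 hours with final DMSO typically 0.2%. Viability was read by CellTiter-Glo 2.0 luminescence and scaled between blank-well and DMSO-well means. The single-agent IC50 was fitted from dose responses using a logistic curve in a non-linear mixed effects model, and that logistic curve had two parameters.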

Venetoclax = compound: CC1(C)CCC(CN2CCN(c3ccc(C(=O)NS(=O)(=O)c4ccc(NCC5CCOCC5)c([N+](=O)[O-])c4)c(Oc4cnc5[nH]ccc5c4)c3)CC2)=C(c2ccc(Cl)cc2)C1 [Venetoclax]; conditions: max 1 µM
How it was run: as §1

Taselisib = compound: Cc1nc(-c2cn3c(n2)-c2ccc(-c4cnn(C(C)(C)C(N)=O)c4)cc2OCC3)n(C(C)C)n1 [Taselisib]; conditions: max 10 µM
How it was run: as §1

AZD0156 = compound: CN(C)CCCOc1ccc(-c2ccc3ncc4c(c3c2)n(C2CCOCC2)c(=O)n4C)cn1 [AZD0156]; conditions: max 3 µM
How it was run: as §1

AZD8186 = compound: C[C@@H](Nc1cc(F)cc(F)c1)c1cc(C(=O)N(C)C)cc2c(=O)cc(N3CCOCC3)oc12 [AZD8186]; conditions: max 3 µM
How it was run: as §1

AZD7648 = compound: Cc1cc2ncnn2cc1Nc1ncc2c(n1)n(C1CCOCC1)c(=O)n2C [AZD7648]; conditions: max 10 µM
How it was run: as §1

Capivasertib = compound: C1CN(CCC1(C(=O)N[C@@H](CCO)C2=CC=C(C=C2)Cl)N)C3=NC=NC4=C3C=CN4 [Capivasertib]; conditions: max 10 µM
How it was run: as §1

AZD5991 = compound: Cc1c2c(nn1C)CSCc1cc(n(C)n1)CSc1cc(c3ccccc3c1)OCCCc1c(C(=O)O)n(C)c3c-2c(Cl)ccc13 [AZD5991]; conditions: max 1 µM
How it was run: as §1

AZD6738 = compound: C[C@@H]1COCCN1C2=NC(=NC(=C2)C3(CC3)[S@](=N)(=O)C)C4=C5C=CNC5=NC=C4 [AZD6738]; conditions: max 10 µM
How it was run: as §1

Alisertib = compound: COc1cc(Nc2ncc3c(n2)-c2ccc(Cl)cc2C(c2c(F)cccc2OC)=NC3)ccc1C(=O)O [Alisertib]; conditions: max 10 µM
How it was run: as §1

Gefitinib = compound: COc1cc2ncnc(Nc3ccc(F)c(Cl)c3)c2cc1OCCCN1CCOCC1 [Gefitinib]; conditions: max 10 µM
How it was run: as §1

AZD5153 = compound: COc1nnc2ccc(N3CCC(c4ccc(OCCN5CCN(C)C(=O)[C@H]5C)cc4)CC3)nn12 [AZD5153]; conditions: max 1 µM
How it was run: as §1

Crizotinib = compound: C[C@@H](Oc1cc(-c2cnn(C3CCNCC3)c2)cnc1N)c1c(Cl)ccc(F)c1Cl [Crizotinib]; conditions: max 10 µM
How it was run: as §1

SN-38 = compound: CCc1c2c(nc3ccc(O)cc13)-c1cc3c(c(=O)n1C2)COC(=O)[C@]3(O)CC [SN-38]; conditions: max 0.3 µM
How it was run: as §1

Dasatinib = compound: CC1=C(C(=CC=C1)Cl)NC(=O)C2=CN=C(S2)NC3=CC(=NC(=N3)C)N4CCN(CC4)CCO [Dasatinib]; conditions: max 2 µM
How it was run: as §1

Savolitinib = compound: C[C@@H](c1ccc2nccn2c1)n1nnc2ncc(-c3cnn(C)c3)nc21 [Savolitinib]; conditions: max 1 µM
How it was run: as §1

Palbociclib = compound: CC(=O)c1c(C)c2cnc(Nc3ccc(N4CCNCC4)cn3)nc2n(C2CCCC2)c1=O [Palbociclib]; conditions: max 10 µM
How it was run: as §1

AZD2811 = compound: CCN(CCO)CCCOc1ccc2c(Nc3cc(CC(=O)Nc4cccc(F)c4)[nH]n3)ncnc2c1 [AZD2811]; conditions: max 1 µM
How it was run: as §1

AZD1775 = compound: C=CCn1c(=O)c2cnc(Nc3ccc(N4CCN(C)CC4)cc3)nc2n1-c1cccc(C(C)(C)O)n1 [AZD1775]; conditions: max 3 µM
How it was run: as §1

Lapatinib = compound: CS(=O)(=O)CCNCc1ccc(-c2ccc3ncnc(Nc4ccc(OCc5cccc(F)c5)c(Cl)c4)c3c2)o1 [Lapatinib]; conditions: max 10 µM
How it was run: as §1

AZD1390 = compound: CC(C)n1c(=O)n(C)c2cnc3cc(F)c(-c4ccc(OCCCN5CCCCC5)nc4)cc3c21 [AZD1390]; conditions: max 0.3 µM
How it was run: as §1

Olaparib = compound: O=C(c1cc(Cc2n[nH]c(=O)c3ccccc23)ccc1F)N1CCN(C(=O)C2CC2)CC1 [Olaparib]; conditions: max 10 µM
How it was run: as §1

Prexasertib = compound: COc1cccc(OCCCN)c1-c1cc(Nc2cnc(C#N)cn2)n[nH]1 [Prexasertib]; conditions: max 1 µM
How it was run: as §1

AZD4320 = compound: CN(CC[C@H](CSC1=CC=CC=C1)NC2=C(C=C(C=C2)S(=O)(=O)NC(=O)C3=CC=C(C=C3)N4CCC(CC4)[C@H](C5=CC=CC=C5C6=CC=C(C=C6)Cl)O)S(=O)(=O)C(F)(F)F)CCO [AZD4320]; conditions: max 1 µM
How it was run: as §1

Selumetinib = compound: Cn1cnc2c(F)c(Nc3ccc(Br)cc3Cl)c(C(=O)NOCCO)cc21 [Selumetinib]; conditions: max 10 µM
How it was run: as §1

Doxorubicin = compound: COc1cccc2c1C(=O)c1c(O)c3c(c(O)c1C2=O)C[C@@](O)(C(=O)CO)C[C@@H]3O[C@H]1C[C@H](N)[C@H](O)[C@H](C)O1 [Doxorubicin]; conditions: max 1 µM
How it was run: as §1

Trametinib = compound: CC(=O)Nc1cccc(-n2c(=O)n(C3CC3)c(=O)c3c(Nc4ccc(I)cc4F)n(C)c(=O)c(C)c32)c1 [Trametinib]; conditions: max 1 µM
How it was run: as §1

| Cell Line | IC50, cell viability 72 h (SG3199) [nM] | IC50, cell viability 72 h (Venetoclax) [nM] | IC50, cell viability 72 h (Taselisib) [nM] | IC50, cell viability 72 h (AZD0156) [nM] | IC50, cell viability 72 h (AZD8186) [nM] | IC50, cell viability 72 h (AZD7648) [nM] | IC50, cell viability 72 h (Capivasertib) [nM] | IC50, cell viability 72 h (AZD5991) [nM] | IC50, cell viability 72 h (AZD6738) [nM] | IC50, cell viability 72 h (Alisertib) [nM] | IC50, cell viability 72 h (Gefitinib) [nM] | IC50, cell viability 72 h (AZD5153) [nM] | IC50, cell viability 72 h (Crizotinib) [nM] | IC50, cell viability 72 h (SN-38) [nM] | IC50, cell viability 72 h (Dasatinib) [nM] | IC50, cell viability 72 h (Savolitinib) [nM] | IC50, cell viability 72 h (Palbociclib) [nM] | IC50, cell viability 72 h (AZD2811) [nM] | IC50, cell viability 72 h (AZD1775) [nM] | IC50, cell viability 72 h (Lapatinib) [nM] | IC50, cell viability 72 h (AZD1390) [nM] | IC50, cell viability 72 h (Olaparib) [nM] | IC50, cell viability 72 h (Prexasertib) [nM] | IC50, cell viability 72 h (AZD4320) [nM] | IC50, cell viability 72 h (Selumetinib) [nM] | IC50, cell viability 72 h (Doxorubicin) [nM] | IC50, cell viability 72 h (Trametinib) [nM] |
| --- | --- | --- | --- | --- | --- | --- | --- | --- | --- | --- | --- | --- | --- | --- | --- | --- | --- | --- | --- | --- | --- | --- | --- | --- | --- | --- | --- |
| T47D (Breast Carcinoma) | > 1 | > 1000 | 776 | > 3000 | > 3000 | > 10000 | > 10000 | > 1000 | > 10000 | > 10000 | > 10000 | > 1000 | > 10000 | 104 | > 2000 | > 1000 | > 10000 | > 1000 | > 3000 | > 10000 | > 300 | > 10000 | > 1000 | > 1000 | > 10000 | > 1000 | > 1000 |
| P30-OHK (B-Lymphoblastic Leukemia) | > 1 | > 1000 | 6340 | > 3000 | > 3000 | > 10000 | > 10000 | 835 | 3470 | 231 | > 10000 | 63.3 | 2780 | 9.37 | > 2000 | > 1000 | > 10000 | 37.9 | 660 | > 10000 | > 300 | > 10000 | 20.5 | 173 | > 10000 | 202 | > 1000 |
| SAT (Head and Neck Carcinoma) | > 1 | > 1000 | 160 | > 3000 | > 3000 | > 10000 | > 10000 | > 1000 | > 10000 | 2920 | 2610 | 155 | > 10000 | > 300 | 204 | > 1000 | > 10000 | > 1000 | 2690 | 2020 | > 300 | > 10000 | 826 | > 1000 | 4690 | > 1000 | 77.2 |
